Laboratory results published in patent US5409932A, “Piperazine-substituted pyrroloanthracenes” (Bayer AG, priority 1993, dated 1995).

tested on: human T cells; experiment: Inhibition of 5-HT-dependent T Cell Proliferation; assay type: cell-based; details: Homo sapiens, T-cell, monocyte-free human T cells stimulated with PWM and 5-HT; 3H-thymidine incorporation; 7 days
Text: The in vitro activity of the compounds according to the invention results from their capability to inhibit T cell proliferation, which is previously stimulated by serotonin.
Inhibition of 5-HT-dependent T Cell Proliferation
Peripheral mononuclear blood cells (PBMC) are obtained from the buffy coat of the blood of healthy subjects. After isolation by means of isolymph gradients (Pharmacia), the PBMC are washed twice and used directly. Purified T cells are obtained by E rosette formation with sheep erythrocytes [cf. Blue, M.-L. , J. F. Daley, H. Levine, K. A. Craig and S. F. Schlossmann, 1986, Biosynthesis and surface expression of T8 by peripheral blood T4+cells in vitro, J. Immunol. 137, 1202]. Monocytes are partially removed by adhesion to tissue culture plates or flasks. PBMC, T cells or purified T cells (depleted in monocytes) at 5×10^5 /ml, 100 μl/well are cultured in RPMI 1640 medium with 10% fetal calf serum (GIBCO) and L-glutamine in 96-well microculture plates (Becton--Dickinson)under a 5% CO2 atmosphere at 37° C. for 7 days. The cultures are treated with 1 μCi of ^3 H-thymidine for 6 h on the 7th day and collected on filter paper, and the incorporated radioactivity is determined by means of liquid scintillation counting.
The test substances are dissolved in 10 mM HCl in order to achieve a final concentration of 1 mM in each case. The compounds are diluted serially 3×with medium in order to obtain a final concentration between 33 μM-0.1 μM. PWM (1:200, pokeweed mitogen) and 5-HT (100 μm, serotonin), which contain the test substances, are added to monocyte-free human T cells. The positive control (maximum proliferation) is obtained from cultures containing T cells, PWM and 5-HT. The negative control (minimal proliferation) is obtained from cultures containing T cells and PWM without 5-HT. The inhibitory activity of the test substances is expressed as the IC50 in μM. (see also WO 92/04015)

Going from Clc1cccc(N2CCN(CCCN3CC4C5c6ccccc6C(c6ccccc65)C4C3)CC2)c1 (stereo not shown) [Example 78] to Clc1cccc(N2CCN(CCCCN3CC4C5c6ccccc6C(c6ccccc65)C4C3)CC2)c1 (stereo not shown) [Example 66], the IC50 falls from 5 µM to 2 µM (2.5-fold).

O=C1C2C3c4ccccc4C(C=Cc4ccccc4)(c4ccccc43)C2C(=O)N1CCCN1CCN(c2ccc(F)cc2)CC1 (stereo not shown) [Example 38] and O=C1C2C3c4ccccc4C(c4ccccc4)(c4ccccc43)C2C(=O)N1CCCN1CCN(c2ccc(F)cc2)CC1 (stereo not shown) [Example 49] cannot be ordered by IC50: > 10 µM for the first, > 50 µM for the second.

Going from FC(F)(F)c1cccc(N2CCN(CCCN3CC4C5c6ccccc6C(c6ccccc65)C4C3)CC2)c1 (stereo not shown) [Example 80] to FC(F)(F)c1ccc(N2CCN(CCCN3CC4C5c6ccccc6C(c6ccccc65)C4C3)CC2)cc1 (stereo not shown) [Example 75], the IC50 falls from 5 µM to 2 µM (2.5-fold).

Going from COc1ccc(N2CCN(CCCCN3CC4C5c6ccccc6C(c6ccccc65)C4C3)CC2)cc1 (stereo not shown) [Example 70] to Clc1ccc(N2CCN(CCCCN3CC4C5c6ccccc6C(c6ccccc65)C4C3)CC2)cc1 (stereo not shown) [Example 67], the IC50 rises from 0.5 µM to 2 µM (4-fold).

Going from NCC12c3ccccc3C(c3ccccc31)C1CN(CCCN3CCN(c4ccc(F)cc4)CC3)CC12 (stereo not shown) [Example 101] to Fc1ccc(N2CCN(CCCN3CC4C5c6ccccc6C(Cl)(c6ccccc65)C4C3)CC2)cc1 (stereo not shown) [Example 100], the IC50 rises from 1 µM to 2 µM (2-fold). The first is the more potent here.

First: O=C1C2C3c4ccccc4C(CCl)(c4ccccc43)C2CN1CCCN1CCN(c2ccc(F)cc2)CC1 (stereo not shown) [Example 113]
Second: O=C1C2C3c4ccccc4C(CCl)(c4ccccc43)C2C(=O)N1CCCN1CCN(c2ccc(F)cc2)CC1 (stereo not shown) [Example 48]
The IC50 of the first is 5-fold lower: 2 µM for the first, 10 µM for the second.

O=C1C2C3c4ccccc4C(c4ccccc43)C2C(=O)N1CCCN1CCN(c2ccccc2F)CC1 (stereo not shown) [Example 18] and O=C1C2C3c4ccccc4C(c4ccccc43)C2C(=O)N1CCCCN1CCN(c2ccccc2F)CC1 (stereo not shown) [Example 6] cannot be ordered by IC50: > 10 µM for the first, > 10 µM for the second.

N#CC12c3ccccc3C(c3ccccc31)C1C(=O)N(CCCN3CCN(c4ccc(F)cc4)CC3)C(=O)C12 (stereo not shown) [Example 36] and CC12c3ccccc3C(c3ccccc31)C1C(=O)N(CCCN3CCN(c4ccc(F)cc4)CC3)C(=O)C12 (stereo not shown) [Example 31] cannot be ordered by IC50: > 10 µM for the first, > 10 µM for the second.

O=C1C2C(C(=O)N1CCCN1CCN(c3ccc(F)cc3)CC1)C1(Br)c3ccccc3C2(Br)c2ccccc21 (stereo not shown) [Example 45] and C=CC12c3ccccc3C(c3ccccc31)C1C(=O)N(CCCN3CCN(c4ccc(F)cc4)CC3)C(=O)C12 (stereo not shown) [Example 37] cannot be ordered by IC50: > 10 µM for the first, > 10 µM for the second.

Compared with Clc1ccc(N2CCN(CCCCN3CC4C5c6ccccc6C(c6ccccc65)C4C3)CC2)cc1Cl (stereo not shown) [Example 68], Clc1ccccc1N1CCN(CCCCN2CC3C4c5ccccc5C(c5ccccc54)C3C2)CC1 (stereo not shown) [Example 65] is 10-fold lower in IC50: 5 µM for the first, 0.5 µM for the second. The second is the more potent here.

COc1ccc(N2CCN(CCCN3C(=O)C4C5c6ccccc6C(c6ccccc65)C4C3=O)CC2)cc1OC (stereo not shown) [Example 28] and COc1cccc(N2CCN(CCCN3C(=O)C4C5c6ccccc6C(c6ccccc65)C4C3=O)CC2)c1 (stereo not shown) [Example 16] cannot be ordered by IC50: > 10 µM for the first, > 10 µM for the second.

Cc1ccc(N2CCN(CCCN3C(=O)C4C5c6ccccc6C(c6ccccc65)C4C3=O)CC2)c(C)c1 (stereo not shown) [Example 25] and Cc1ccccc1N1CCN(CCCN2C(=O)C3C4c5ccccc5C(c5ccccc54)C3C2=O)CC1 (stereo not shown) [Example 19] cannot be ordered by IC50: > 10 µM for the first, > 10 µM for the second.

Compared with O=C1C2C(CN1CCCN1CCN(c3ccccc3)CC1)C1(Cl)c3ccccc3C2(Cl)c2ccccc21 (stereo not shown) [Example 116], O=C1C2C(CN1CCCN1CCN(c3ccc(F)cc3)CC1)C1(Cl)c3ccccc3C2(Cl)c2ccccc21 (stereo not shown) [Example 112] is 2.5-fold higher in IC50: 2 µM for the first, 5 µM for the second. The first is the more potent here.

Going from O=C1C2C3c4ccccc4C(c4ccccc43)C2CN1CCCN1CCN(c2cc(Cl)cc(Cl)c2)CC1 (stereo not shown) [Example 115] to Cc1cccc(N2CCN(CCCN3C(=O)C4C5c6ccccc6C(c6ccccc65)C4C3=O)CC2)c1 (stereo not shown) [Example 14], the IC50 rises from 2 µM to > 10 µM.

CCc1ccccc1N1CCN(CCCN2C(=O)C3C4c5ccccc5C(c5ccccc54)C3C2=O)CC1 (stereo not shown) [Example 20] and CCOc1ccccc1N1CCN(CCCN2C(=O)C3C4c5ccccc5C(c5ccccc54)C3C2=O)CC1 (stereo not shown) [Example 22] cannot be ordered by IC50: > 10 µM for the first, > 10 µM for the second.

Going from CCc1ccccc1N1CCN(CCCN2CC3C4c5ccccc5C(c5ccccc54)C3C2)CC1 (stereo not shown) [Example 85] to Cc1ccccc1N1CCN(CCCN2CC3C4c5ccccc5C(c5ccccc54)C3C2)CC1 (stereo not shown) [Example 84], the IC50 falls from 3 µM to 2 µM (1.5-fold). The second is the more potent here.

Going from Cc1cccc(N2CCN(CCCN3CC4C5c6ccccc6C(c6ccccc65)C4C3)CC2)c1 (stereo not shown) [Example 79] to Cc1ccc(N2CCN(CCCN3CC4C5c6ccccc6C(c6ccccc65)C4C3)CC2)cc1 (stereo not shown) [Example 76], the IC50 rises from 1 µM to 2 µM (2-fold).

O=C1C2C3c4ccccc4C(c4ccccc43)C2C(=O)N1CCCN1CCN(c2ccc(C(F)(F)F)cc2)CC1 (stereo not shown) [Example 10] and O=C1C2C3c4ccccc4C(c4ccccc43)C2C(=O)N1CCCN1CCN(c2cccc(C(F)(F)F)c2)CC1 (stereo not shown) [Example 15] cannot be ordered by IC50: > 10 µM for the first, > 10 µM for the second.

O=C1C2C3c4ccccc4C(c4ccccc43)C2C(=O)N1CCN1CCN(c2ccccc2)CC1 (stereo not shown) [Example 3] and O=C1C2C3c4ccccc4C(c4ccccc43)C2C(=O)N1CCCN1CCN(c2ccccc2)CC1 (stereo not shown) [Example 7] cannot be ordered by IC50: > 10 µM for the first, > 10 µM for the second.

COc1ccccc1N1CCN(CCCN2C(=O)C3C4c5ccccc5C(c5ccccc54)C3C2=O)CC1 (stereo not shown) [Example 21] and O=C1C2C3c4ccccc4C(c4ccccc43)C2C(=O)N1CCCN1CCN(c2ccccc2Cl)CC1 (stereo not shown) [Example 17] cannot be ordered by IC50: > 10 µM for the first, > 10 µM for the second.

Compared with COc1cc(N2CCN(CCCN3CC4C5c6ccccc6C(c6ccccc65)C4C3)CC2)cc(OC)c1OC (stereo not shown) [Example 106], COc1ccc(N2CCN(CCCN3CC4C5c6ccccc6C(c6ccccc65)C4C3)CC2)cc1OC (stereo not shown) [Example 93] is 20-fold higher in IC50: 0.5 µM for the first, 10 µM for the second.

Fc1ccc(N2CCN(CCCN3CC4C5c6ccccc6C(C=Cc6ccccc6)(c6ccccc65)C4C3)CC2)cc1 (stereo not shown) [Example 103] and C=CC12c3ccccc3C(c3ccccc31)C1CN(CCCN3CCN(c4ccc(F)cc4)CC3)CC12 (stereo not shown) [Example 102] are the same in IC50: 2 µM for the first, 2 µM for the second.

O=C1C2C(CN1CCCN1CCN(c3ccc(F)cc3)CC1)C1c3ccccc3C2(c2ccccc2)c2ccccc21 (stereo not shown) [Example 114] and O=C1N(CCCN2CCN(c3ccc(F)cc3)CC2)CC2C3c4ccccc4C(c4ccccc43)C12c1ccccc1 (stereo not shown) [Example 117] are the same in IC50: 2 µM for the first, 2 µM for the second.

O=C1C2C3c4ccccc4C(c4ccccc43)C2C(=O)N1CCCCN1CCN(c2ccc(F)cc2)CC1 (stereo not shown) [Example 5] and O=C1C2C3c4ccccc4C(c4ccccc43)C2C(=O)N1CCCN1CCN(c2ccc(F)cc2)CC1 (stereo not shown) [Example 1, 13-{3-[4-(4-Fluorophenyl)piperazin-1-yl]-propyl}-9,10-dihydro-9,10[3', 4']-pyrroloanthracene-12,14(11H,15H) dione] cannot be ordered by IC50: > 10 µM for the first, > 10 µM for the second.

First: O=C1C2C3c4ccccc4C(c4ccccc43)C2C(=O)N1CCCCN1CCN(c2ccccc2)CC1 (stereo not shown) [Example 4]
Second: Cc1ccccc1N1CCN(CCCCN2C(=O)C3C4c5ccccc5C(c5ccccc54)C3C2=O)CC1 (stereo not shown) [Example 8]
The IC50 of the first is lower: 5 µM for the first, > 10 µM for the second.

First: CC12c3ccccc3C(c3ccccc31)C1CN(CCCN3CCN(c4ccc(Cl)cc4)CC3)CC12 (stereo not shown) [Example 95]
Second: CC12c3ccccc3C(c3ccccc31)C1CN(CCCN3CCN(c4ccc(F)cc4)CC3)CC12 (stereo not shown) [Example 96]
The IC50 of the first is lower: 5 µM for the first, > 10 µM for the second.

First: COC(OC)C12c3ccccc3C(c3ccccc31)C1CN(CCCN3CCN(c4ccc(F)cc4)CC3)CC12 (stereo not shown) [Example 107]
Second: CC12c3ccccc3C(c3ccccc31)C1CN(CCCN3CCN(c4ccccc4)CC3)CC12 (stereo not shown) [Example 94]
The IC50 of the first is 7-fold lower: 1 µM for the first, 7 µM for the second. The first is the more potent here.

First: OCC12c3ccccc3C(c3ccccc31)C1CN(CCCN3CCN(c4ccccc4)CC3)CC12 (stereo not shown) [Example 97]
Second: CC12CN(CCCN3CCN(c4ccccc4)CC3)CC1C1c3ccccc3C2c2ccccc21 (stereo not shown) [Example 104]
The IC50 of the first is 5-fold higher: 10 µM for the first, 2 µM for the second.

O=C1C2C3c4ccccc4C(Cl)(c4ccccc43)C2C(=O)N1CCCN1CCN(c2ccccc2)CC1 (stereo not shown) [Example 34] and COc1ccc(N2CCN(CCCN3C(=O)C4C5c6ccccc6C(c6ccccc65)C4C3=O)CC2)cc1 (stereo not shown) [Example 12] cannot be ordered by IC50: > 10 µM for the first, > 10 µM for the second.

First: Fc1ccccc1N1CCN(CCCN2CC3C4c5ccccc5C(c5ccccc54)C3C2)CC1 (stereo not shown) [Example 83]
Second: Fc1ccc(N2CCN(CCCCN3CC4C5c6ccccc6C(c6ccccc65)C4C3)CC2)cc1 (stereo not shown) [Example 69]
The IC50 of the first is 12-fold higher: 7 µM for the first, 0.6 µM for the second. The second is the more potent here.

FC(F)(F)c1ccc(N2CCN(CCCCN3CC4C5c6ccccc6C(c6ccccc65)C4C3)CC2)cc1 (stereo not shown) [Example 73] and Cc1ccc(N2CCN(CCCN3CC4C5c6ccccc6C(c6ccccc65)C4C3)CC2)cc1C (stereo not shown) [Example 92] are the same in IC50: 2 µM for the first, 2 µM for the second.

With CC12CN(CCCN3CCN(c4ccc(F)cc4)CC3)CC1C1c3ccccc3C2c2ccccc21 (stereo not shown) [Example 105] the IC50 was 2 µM.

same assay, conditions: monocyte-free human T cells stimulated with PWM and 5-HT; 3H-thymidine incorporation; 7 days

For CC12c3ccccc3C(C)(c3ccccc31)C1C(=O)N(CCCN3CCN(c4ccc(F)cc4)CC3)C(=O)C12 (stereo not shown) [Example 44], the IC50 was > 10 µM.
